Test systems include OVCAR-5 ovarian; HCT-116 colon; MCF7 breast; SR leukemia; T-47D breast; MALME-3M melanoma; SNB-19 CNS; SF-295 CNS; NCI-H522 lung; KM12 colon; MOLT-4 leukemia.
Common to all, as to experiment: NCI tumour cell line growth inhibition, 48 h

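Each compound was tested at five concentrations against cells in 96-well plates for 48 hours. Definition used: TGI = concentration required for complete inhibition of growth.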

Regarding `C/C(=N/NC(=S)Nc1cccc(C)c1)c1ccccn1`, the TGI in the assay with OVCAR-5 ovarian was found to be 2.67 µM; in the assay on HCT-116 colon it was 3.11 µM; in the assay on MCF7 breast, 0.224 µM; with SR leukemia, 2.92 µM; in the assay on T-47D breast it was 12.4 µM; in the assay with MALME-3M melanoma, 8 µM. The TGI in the assay on SNB-19 CNS turned out to be 14.3 µM; in the assay with SF-295 CNS it was 4.89 µM; in the assay on NCI-H522 lung, 7.23 µM; in the assay on KM12 colon, 4.12 µM.
In the case of `O=C1OC[C@@H]2Cc3c([nH]c4ccccc34)[C@@H](c3ccc(O)cc3)N12`, the TGI was above 100 µM in the assay with OVCAR-5 ovarian; 35 µM with HCT-116 colon; above 100 µM in the assay on MCF7 breast; above 87.4 µM in the assay on SR leukemia; above 100 µM in the assay with T-47D breast; 85.1 µM in the assay on MALME-3M melanoma. In addition, the TGI was above 75.3 µM in the assay on MOLT-4 leukemia; above 100 µM with SNB-19 CNS; above 83.4 µM in the assay on SF-295 CNS; 77.6 µM with NCI-H522 lung; 53.1 µM with KM12 colon.
As to `CCOP(=O)(OCC)/C(F)=C/c1ccccc1`, the TGI in the assay on OVCAR-5 ovarian, in the assay on HCT-116 colon, in the assay with MCF7 breast, in the assay with SR leukemia, with T-47D breast and in the assay with MALME-3M melanoma was above 100 µM each time. The TGI with MOLT-4 leukemia, in the assay with SNB-19 CNS, in the assay with SF-295 CNS, in the assay on NCI-H522 lung and in the assay with KM12 colon was above 100 µM throughout.
Consider `O=C1CC(c2ccc([N+](=O)[O-])cc2)C2(C(=O)NC(=S)NC2=O)C(c2ccc([N+](=O)[O-])cc2)C1` (stereo not given), for which the TGI with OVCAR-5 ovarian is 87.4 µM; in the assay on HCT-116 colon, 32.4 µM; in the assay with MCF7 breast, 43.8 µM; with SR leukemia, above 100 µM; in the assay with T-47D breast, 96.3 µM; in the assay on MALME-3M melanoma, 32.2 µM. Moreover, the TGI in the assay with MOLT-4 leukemia was above 100 µM; in the assay on SNB-19 CNS it was 43.5 µM; in the assay with SF-295 CNS it was 60.1 µM; in the assay on NCI-H522 lung, 36.4 µM; in the assay with KM12 colon, 36.3 µM.
Take `NCCCC(N)C(=O)O` (stereo not given): the TGI in the assay on OVCAR-5 ovarian, in the assay with HCT-116 colon, in the assay with MCF7 breast, with SR leukemia, in the assay on T-47D breast and in the assay with MALME-3M melanoma was above 100 µM each time. Also, the TGI with MOLT-4 leukemia, in the assay with SNB-19 CNS, in the assay on SF-295 CNS, in the assay with NCI-H522 lung and in the assay with KM12 colon was above 100 µM throughout.
For the compound `CSc1c(C(=O)Nc2ccc(C)cc2)c(N)[nH]c(=O)c1C#N`, the TGI in the assay with OVCAR-5 ovarian, in the assay on HCT-116 colon, in the assay with MCF7 breast, in the assay on SR leukemia, in the assay on T-47D breast and in the assay on MALME-3M melanoma was above 100 µM throughout. The TGI in the assay with MOLT-4 leukemia, in the assay with SNB-19 CNS, in the assay with NCI-H522 lung and in the assay with KM12 colon was above 100 µM throughout.
As for `O=C1C(Br)=Cc2c(Cl)sc(Cl)c21`, the TGI came to 36 µM in the assay on OVCAR-5 ovarian; 6.25 µM with HCT-116 colon; 11.5 µM in the assay with MCF7 breast; 15.5 µM with SR leukemia; 7.58 µM with T-47D breast; 29 µM in the assay on MALME-3M melanoma. Moreover, the TGI in the assay on MOLT-4 leukemia is 2.08 µM; in the assay with SNB-19 CNS, 50.7 µM; in the assay with SF-295 CNS, above 66.4 µM; in the assay on NCI-H522 lung it was 11.7 µM; in the assay with KM12 colon, 20.3 µM.
Take `CCn1c(=O)c2c3cc(O)ccc3oc2c2ccc(O)cc21`: the TGI in the assay with MCF7 breast was above 100 µM; with SR leukemia, 63.5 µM; with T-47D breast, 36.5 µM; in the assay on MALME-3M melanoma it was above 100 µM; in the assay with MOLT-4 leukemia, above 100 µM; in the assay with SNB-19 CNS, above 100 µM. Moreover, the TGI was above 100 µM in the assay on SF-295 CNS, 63.9 µM in the assay on NCI-H522 lung and above 100 µM with KM12 colon.
In the case of `O=C1N[C@@H]2c3c(csc3Br)C(=O)[C@@H]2O1`, the TGI with OVCAR-5 ovarian is above 100 µM; in the assay with HCT-116 colon it was above 100 µM; in the assay with MCF7 breast it was above 100 µM; with SR leukemia it was 74.1 µM; in the assay with T-47D breast, 99 µM; in the assay with MALME-3M melanoma, above 100 µM. Besides, the TGI with MOLT-4 leukemia was 52.4 µM; with SNB-19 CNS it was above 100 µM; with SF-295 CNS, above 100 µM; with NCI-H522 lung, 68.3 µM; with KM12 colon, above 100 µM.
In the case of `O=C(O)c1ccc(NS(=O)(=O)Cc2ccccc2)cc1`, the TGI in the assay on OVCAR-5 ovarian, with HCT-116 colon, with MCF7 breast, in the assay on SR leukemia, in the assay with T-47D breast and with MALME-3M melanoma was above 100 µM each time. The TGI in the assay on MOLT-4 leukemia, in the assay with SNB-19 CNS, with SF-295 CNS, in the assay on NCI-H522 lung and with KM12 colon was above 100 µM throughout.
On to `O=C(O[C@H](/C=C/c1ccccc1)P1(=O)N(Cc2ccccc2)[C@@H]2CCCC[C@H]2N1Cc1ccccc1)c1ccccc1`, for which the TGI was above 100 µM in the assay with OVCAR-5 ovarian; 12.1 µM in the assay on HCT-116 colon; above 100 µM in the assay on MCF7 breast; above 100 µM in the assay with SR leukemia; 3.66 µM with T-47D breast; 12 µM with MALME-3M melanoma. Also, the TGI in the assay on SNB-19 CNS was above 100 µM; in the assay with SF-295 CNS, above 100 µM; in the assay with NCI-H522 lung, above 100 µM; with KM12 colon, 14.2 µM.
As to `Cc1cccc(C[C@@]2(SCc3ccccc3)C(C)(C)[C@@H]3CC[C@@]2(C)C3)n1`, the TGI with OVCAR-5 ovarian amounted to 34.9 µM; in the assay with HCT-116 colon it was 31.9 µM; in the assay with MCF7 breast, 26.8 µM; in the assay with SR leukemia it was 31.9 µM; in the assay with T-47D breast, 24.9 µM; with MALME-3M melanoma, 33 µM. Moreover, the TGI in the assay on MOLT-4 leukemia was 27.3 µM; in the assay with SNB-19 CNS it was 33.1 µM; with SF-295 CNS, 29.1 µM; with NCI-H522 lung it was 29.1 µM; in the assay with KM12 colon, 36.9 µM.
On to `CN1CN(c2ccccc2)C2(CCN(CCCC3(c4cccs4)OCCO3)CC2)C1=O`, for which the TGI with OVCAR-5 ovarian, with HCT-116 colon, in the assay with MCF7 breast, in the assay with SR leukemia, in the assay with T-47D breast and in the assay on MALME-3M melanoma was above 100 µM throughout. Moreover, the TGI in the assay on MOLT-4 leukemia, with SNB-19 CNS, with SF-295 CNS, in the assay with NCI-H522 lung and in the assay on KM12 colon was above 100 µM each time.
`Cc1cccc(N(CCC#N)S(=O)(=O)c2ccccc2)c1`: the TGI with OVCAR-5 ovarian, in the assay on HCT-116 colon, in the assay with MCF7 breast, in the assay on SR leukemia, in the assay on T-47D breast and with MALME-3M melanoma was above 100 µM throughout. The TGI in the assay with MOLT-4 leukemia, with SNB-19 CNS, with NCI-H522 lung and with KM12 colon was above 100 µM in each case.
In the case of `O=C1C(C=NCCc2c[nH]c3ccccc23)C(C(F)(F)F)=NN1c1nc2ccccc2s1` (stereo not given), the TGI was 78.8 µM with OVCAR-5 ovarian; above 100 µM in the assay on HCT-116 colon; 57.2 µM in the assay with MCF7 breast; 93.9 µM in the assay on SR leukemia; 25.5 µM in the assay on T-47D breast; above 100 µM in the assay with MALME-3M melanoma. For the same compound, the TGI in the assay with MOLT-4 leukemia was 60.4 µM; in the assay with SNB-19 CNS, above 100 µM; in the assay on SF-295 CNS, 66.5 µM; in the assay with NCI-H522 lung, 43.6 µM.
Regarding `O=C(O)Cc1ccc2nc(COC(=O)c3ccccc3)sc2c1`, the TGI in the assay on OVCAR-5 ovarian, in the assay with HCT-116 colon, in the assay on MCF7 breast, in the assay with SR leukemia, in the assay with T-47D breast and in the assay on MALME-3M melanoma was above 100 µM throughout. Besides, the TGI in the assay with SNB-19 CNS, in the assay with SF-295 CNS, in the assay on NCI-H522 lung and with KM12 colon was above 100 µM throughout.
In the case of `CC1=CC=CC(C)(C)CC1(O[Si](C)(C)C)C(F)(F)F` (stereo not given), the TGI with OVCAR-5 ovarian, in the assay on HCT-116 colon, in the assay on MCF7 breast, in the assay on SR leukemia, with T-47D breast and with MALME-3M melanoma was above 100 µM throughout. Besides, the TGI in the assay on SNB-19 CNS, with SF-295 CNS, in the assay on NCI-H522 lung and in the assay with KM12 colon was above 100 µM in each case.
Take `COc1cc2c(cc1OC)C(=O)/C(=C/c1cc(C)c(O)c(C)c1)C2`: the TGI is 13.5 µM in the assay on OVCAR-5 ovarian; above 100 µM with MCF7 breast; above 100 µM in the assay on SR leukemia; above 100 µM in the assay with T-47D breast; 40.1 µM with MALME-3M melanoma; above 100 µM in the assay on MOLT-4 leukemia. Further, the TGI in the assay with SNB-19 CNS is above 100 µM; in the assay with NCI-H522 lung, above 95.9 µM.
For `CC1CC(C#N)=C2NCCCCN2C1=O` (stereo not given), the TGI in the assay with MCF7 breast, with SR leukemia, in the assay on T-47D breast, in the assay with MALME-3M melanoma, in the assay on MOLT-4 leukemia and in the assay with SNB-19 CNS was above 100 µM throughout. In addition, the TGI in the assay on SF-295 CNS, with NCI-H522 lung and in the assay with KM12 colon was above 100 µM in each case.
With `CCOC(=O)c1c(N)n(-c2ccccc2)c(=S)n(-c2ccccc2)c1=O`, the TGI in the assay on OVCAR-5 ovarian, with MCF7 breast, in the assay with SR leukemia, in the assay on T-47D breast, in the assay with MALME-3M melanoma and with MOLT-4 leukemia was above 100 µM each time. Moreover, the TGI in the assay with SNB-19 CNS, in the assay on SF-295 CNS, in the assay on NCI-H522 lung and in the assay with KM12 colon was above 100 µM each time.

Source of the values: PubChem BioAssay (NCI).
